Data from PMC5856786, “A DHODH inhibitor increases p53 synthesis and enhances tumor cell killing by p53 degradation blockage” (Nature Communications, 2018).

How the values were obtained:
HNDF cells = experiment: PI flow cytometry, sub-G1 cells, HNDF; type: cell-based, human; settings: DMSO 72 h + 48 h, 2 μM nutlin-3a last 48 h
Description: (§1) Cell cycle distribution analysis was performed on a Becton Dickinson FACScan flow cytometer or FACSCalibur (BD Biosciences) following staining with propidium iodide (PI) or dual labeling with BrdU and PI[36]. These assays were analyzed using CellQuest Pro (BD Biosciences).

[1] = Pharmacokinetic study, nutlin-3a single or co-administered with (R)-HZ05; type: in vivo, NOD-SCID mice; settings: mice; nutlin-3a 50 mg kg-1 oral + (R)-HZ05 75 mg kg-1 s.c.
Description: collected from the retro-orbital plexus of three mice per group per time point at the following times: pre-dose, 0.08, 0.25, 0.5, 1, 2, 4, 8, and 24 h. Samples were collected into tubes with 20 % potassium-EDTA solution. Plasma was separated at 4000 rpm for 10 minutes at 4 °C and stored at -70 °C until analysis. 25 µL of study sample or spiked plasma calibration standards were added to individual tubes followed by 100 µL of Glipizide at 500 ng mL-1 as an internal standard. Samples were centrifuged at 4000 rpm at 4 °C for 10 minutes. 100 µL of cleared supernatant was transferred to 96-well plates and analyzed using a Waters ACQUITY UPLC connected to an AB Sciex API 4000 QTRAP in MRM mode with positive electrospray ionization with an ion spray voltage of 5500 V. The mobile phase was A: 0.1 % formic acid in acetonitrile and B: 0.1 % formic acid in water through a phenomenex Kinetex EVO C18 (5 µm, 100 × 4.6 mm) kept at 45 °C. […]
Samples were centrifuged at 4000 rpm at 4 °C for 10 minutes. 100 µL of cleared supernatant was transferred to 96-well plates and analyzed using a Waters ACQUITY UPLC connected to an AB Sciex API 4000 QTRAP in MRM mode with positive electrospray ionization with an ion spray voltage of 5500 V. The mobile phase was A: 0.1 % formic acid in acetonitrile and B: 0.1 % formic acid in water through a phenomenex Kinetex EVO C18 (5 µm, 100 × 4.6 mm) kept at 45 °C. […]

U2OS cells [2] = experiment: Annexin V/PI apoptosis flow cytometry; type: cell-based; settings: HZ05 72 h, washed, nutlin-3a 48 h
Description: Fig. 7 HZ05 increases p53 levels in S-phase cells. a U2OS cells were treated with DMSO (vehicle) or HZ05 (1 μM) for 72 h. The upper left panel is a representative dot plot showing the gating strategy for cells expressing high p53 levels (blue: HZ05 treated and red: DMSO treated). […] A representative histogram of the fluorescence intensity of FITC-p53 in S-phase cells is shown in the lower right panel. Bar graphs show the average of three independent experiments. Unpaired t-test was employed to assess statistical significance using GraphPad Prism version 7 (****p < 0.0001 and ***p < 0.001). b U2OS cells were pretreated with HZ05 for 72 h, washed with medium containing DMSO or nutlin-3a, and then provided with fresh medium containing DMSO or nutlin-3a. After an additional 48 h, Annexin V and PI staining was analyzed by flow cytometry. The average of two independent experiments ± SD is shown. c Hypothetical model describing the combination of DHODH inhibition with mdm2 antagonists. […] Inhibition of p53 degradation in the form of an mdm2 antagonist leads to death of cells in S-phase
For the detection of apoptotic cells, the Annexin V-FITC Apoptosis detection kit (Ab#14085) was used with analysis conducted using FlowJo software V10.2.

U2OS cells [3] = experiment: PI flow cytometry, sub-G1 cells, U2OS; type: cell-based; settings: DMSO 72 h + 48 h, 2 μM nutlin-3a last 48 h
Description: as §1

ARN8 xenograft = experiment: ARN8 subcutaneous xenograft; type: in vivo; settings: ARN8 xenograft; (R)-HZ05 75 mg/kg q.d. s.c. or nutlin-3a 50 mg/kg b.i.d. orally
Description: All animal xenograft experiments were approved by the Norwegian Animal Research Authority and conducted according to The European Convention for the Protection of Vertebrates Used for Scientific Purposes. […] The health status and weight of the mice were monitored daily and they were randomized in a non-blinded manner into 4 groups when tumor volumes reached 30–40 mm^3. […] Tumor volumes were measured every second day by a digital caliper using the following ellipsoid formula: Volume = π (length × width × height)/6.
To determine the efficacy of (R)-HZ05 in combination with nutlin-3a, 4 groups of NSG mice (n = 8 per group) were subcutaneously injected in the flank region with a single 100 μL injection of 2 × 10^6 ARN8 cells in a solution of PBS:Matrigel (volume ratio 3:1). Treatment was initiated when tumors reached ~50 mm^3. The maximum tolerated dose for this combination of drugs was previously determined for the strain we used. The endpoint of the experiment was determined by the tumor size ([…]) weight loss, and general condition of the mice according to The Norwegian Animal Research Authority.

MV411 cells = experiment: PI flow cytometry, sub-G1 cells, MV411; type: cell-based; settings: DMSO 72 h + 48 h, 2 μM nutlin-3a last 48 h
Description: as §1

ARN8 cells = experiment: PI flow cytometry, sub-G1 cells, ARN8; type: cell-based, human; settings: ARN8 72 h
Description: as §1

COc1ccc(C2=N[C@@H](c3ccc(Cl)cc3)[C@@H](c3ccc(Cl)cc3)N2C(=O)N2CCNC(=O)C2)c(OC(C)C)c1 [nutlin-3a, reference compound]
sub-G1 cells (HNDF cells): 1.2% | half-life on co-administration with (R)-HZ05 [1]: not prolonged | effect of nutlin-3a after HZ05 pre-treatment and wash-out (U2OS cells [2]): triggered cell death | sub-G1 cells (U2OS cells [3]): 1.1% | xenograft tumor growth, single agent (ARN8 xenograft): ineffective | sub-G1 cells (MV411 cells): 37.2% | DMSO control subtracted effect (cells in sub-G1) (ARN8 cells; HZ05 0 nM + nutlin-3a 5 µM): 0.05 | DMSO control subtracted effect (cells in sub-G1) (ARN8 cells; HZ05 0 nM + nutlin-3a 10 µM): 0.07 | DMSO control subtracted effect (cells in sub-G1) (ARN8 cells; HZ05 0 nM + nutlin-3a 15 µM): 0.12 | DMSO control subtracted effect (cells in sub-G1) (ARN8 cells; HZ05 0 nM + nutlin-3a […]): 0.10 | sub-G1 cells (ARN8 cells; nutlin-3a 1 μM): 0.8% | sub-G1 cells (ARN8 cells; nutlin-3a 2.5 μM): 1.59% | sub-G1 cells (ARN8 cells; nutlin-3a 5 μM): 3.52%
